Measurements as given in patent publication US10975056B2 (GlaxoSmithKline Intellectual Property Development Limited, priority 2016, dated 2021).
Several values for one entry are separate records, joined by “and”; a condition that tells them apart may be missing. Equal entries are not always repeated. Structures can show the parent of a compound that is named as a salt. Where two headings read alike, the source gives them in different places.

How the values were obtained:
[1] = test system: erythroid progenitor cells (EPCs); assay: Fetal hemoglobin (HbF) ELISA in day 7 erythroid progenitor cells; format: cell-based, human; conditions: Homo sapiens, Erythroid progenitor cell, HbF ELISA, day 7 EPCs, 5 days; read-out: EPC ELISA (pEC50 category) (converted);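 further: for fetal hemoglobin induction normalized to vehicle-treated cells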
In short: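 CD34+-derived EPCs, 1,000 cells/well, rhEPO 3 U/mL; Compound A 22-pt series, […]; 5 d, 37° C, 5% CO2. Freeze-thaw lysis, anti-HbF capture + HRP anti-HbF, TMB, OD450. Normalized to DMSO wells.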

DNMT1 = DNMT1 (Homo sapiens, UniProt P26358); assay: DNMT1 biochemical activity, breaklight assay and/or SPA assay
[2] = binned activity in either the breaklight or the SPA assay, read-out: DNMT1 BioChemical (pIC50 category) (converted)
[3] = binned activity in either the breaklight or the SPA assay
[4] = breaklight assay and/or SPA assay, repeated experimental runs, read-out: average pIC50 against DNMT1 (converted)

Chain of DNMT1 (P26358 whole entry, looked up): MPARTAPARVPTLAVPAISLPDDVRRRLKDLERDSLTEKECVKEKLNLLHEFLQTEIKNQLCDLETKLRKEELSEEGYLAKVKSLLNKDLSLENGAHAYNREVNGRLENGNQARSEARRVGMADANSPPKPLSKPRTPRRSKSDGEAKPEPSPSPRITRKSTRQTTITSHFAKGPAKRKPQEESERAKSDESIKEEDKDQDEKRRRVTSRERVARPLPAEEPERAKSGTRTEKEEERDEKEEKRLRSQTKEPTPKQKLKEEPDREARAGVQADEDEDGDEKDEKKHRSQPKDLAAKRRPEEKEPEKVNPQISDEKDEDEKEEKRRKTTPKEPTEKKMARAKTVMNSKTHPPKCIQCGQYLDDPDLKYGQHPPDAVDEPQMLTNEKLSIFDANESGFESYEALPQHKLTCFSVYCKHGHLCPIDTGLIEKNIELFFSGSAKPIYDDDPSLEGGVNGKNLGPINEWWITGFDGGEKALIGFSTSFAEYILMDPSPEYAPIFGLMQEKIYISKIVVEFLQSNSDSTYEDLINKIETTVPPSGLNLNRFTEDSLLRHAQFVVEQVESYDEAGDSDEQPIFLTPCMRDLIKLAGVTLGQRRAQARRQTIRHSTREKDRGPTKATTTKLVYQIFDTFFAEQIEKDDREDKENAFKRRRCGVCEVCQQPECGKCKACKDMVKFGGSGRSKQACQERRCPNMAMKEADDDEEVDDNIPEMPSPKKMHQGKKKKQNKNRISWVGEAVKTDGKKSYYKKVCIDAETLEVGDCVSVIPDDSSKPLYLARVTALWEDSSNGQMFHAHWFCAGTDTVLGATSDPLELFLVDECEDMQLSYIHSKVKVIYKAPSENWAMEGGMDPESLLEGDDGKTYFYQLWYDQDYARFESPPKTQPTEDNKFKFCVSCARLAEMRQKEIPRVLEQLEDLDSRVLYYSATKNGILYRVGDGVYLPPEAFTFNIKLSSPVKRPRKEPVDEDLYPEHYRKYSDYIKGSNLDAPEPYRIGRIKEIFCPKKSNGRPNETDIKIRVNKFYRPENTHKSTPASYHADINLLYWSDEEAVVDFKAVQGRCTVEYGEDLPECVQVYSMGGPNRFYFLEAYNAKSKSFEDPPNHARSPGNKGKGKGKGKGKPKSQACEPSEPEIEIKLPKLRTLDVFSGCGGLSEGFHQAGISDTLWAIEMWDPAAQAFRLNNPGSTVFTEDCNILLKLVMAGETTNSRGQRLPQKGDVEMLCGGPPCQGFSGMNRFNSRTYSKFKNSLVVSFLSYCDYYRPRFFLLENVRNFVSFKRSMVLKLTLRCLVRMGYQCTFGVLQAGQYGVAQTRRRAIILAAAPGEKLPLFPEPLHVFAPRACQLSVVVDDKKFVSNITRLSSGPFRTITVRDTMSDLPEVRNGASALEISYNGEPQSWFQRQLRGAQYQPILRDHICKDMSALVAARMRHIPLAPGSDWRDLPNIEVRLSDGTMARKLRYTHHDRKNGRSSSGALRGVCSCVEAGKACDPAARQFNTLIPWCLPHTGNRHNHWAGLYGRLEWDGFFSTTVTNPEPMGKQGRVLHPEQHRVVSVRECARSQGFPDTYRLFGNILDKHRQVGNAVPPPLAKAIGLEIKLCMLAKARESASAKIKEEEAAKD

Structure (SMILES)	EC50 [1]	IC50 (DNMT1; [2])	DNMT1 BioChemical (pIC50 category) (DNMT1; [3])	IC50 (DNMT1; [4])
CCc1c(C#N)c(SC(C(N)=O)c2cccnc2F)nc(N2CCCN(C)CC2)c1C#N (centres unmarked) [Example 225]	0.316 to 1 µM	1 to 31.6 µM	–	–
CCc1c(C#N)c(SC(C(N)=O)c2ccc(F)nc2)nc(N2CCCN(C)CC2)c1C#N (centres unmarked) [Example 228]	0.316 to 1 µM	1 to 31.6 µM	–	–
CCc1c(C#N)c(SC(C(N)=O)c2ccccc2)nc(N(C)CCC(N)=O)c1C#N (centres unmarked) [Example 230, 3-((6-(2-Amino-2-oxo-1-phenylethylthio)-3,5-dicyano-4-ethylpyridin-2-yl)(methyl)amino)propanamide]	1 to 31.6 µM	0.316 to 1 µM	–	–
CCc1c(C#N)c(SC(C(N)=O)c2ccccc2)nc(N2CCC(OC3COC3)CC2)c1C#N (centres unmarked) [Example 231, 2-((3,5-Dicyano-4-ethyl-6-(4-(oxetan-3-yloxy)piperidin-1-yl)pyridin-2-yl)thio)-2-phenylacetamide]	0.316 to 1 µM	0.316 to 1 µM	–	–
CCc1c(C#N)c(SC(C(N)=O)c2ccccc2)nc(N2CCC(C)(NCC(F)F)CC2)c1C#N (centres unmarked) [Example 232]	0.316 to 1 µM	0.316 to 1 µM	–	–
CCc1c(C#N)c(SC(C(N)=O)c2ccc(C(F)(F)F)cc2)nc(N2CCCN(C)CC2)c1C#N (centres unmarked) [Example 233, 2-((3,5-dicyano-4-ethyl-6-(4-methyl-1,4-diazepan-1-yl)pyridin-2-yl)thio)-2-(4-(trifluoromethyl)phenyl)acetamide]	< 0.316 µM	0.316 to 1 µM	–	–
CCc1c(C#N)c(SC(C(N)=O)c2ccccc2)nc(N2CCN(N)CC2)c1C#N (centres unmarked) [Example 234, 2-((6-(4-Aminopiperazin-1-yl)-3,5-dicyano-4-ethylpyridin-2-yl)thio)-2-phenylacetamide, Trifluoroacetic Acid Salt]	1 to 31.6 µM	0.316 to 1 µM	–	–
CCc1c(C#N)c(SCC(N)=O)nc(SC(C(N)=O)c2ccccc2)c1C#N (centres unmarked) [Example 235, 2-((6-((2-Amino-2-oxoethyl)thio)-3,5-dicyano-4-ethylpyridin-2-yl)thio)-2-phenylacetamide]	0.316 to 1 µM	0.316 to 1 µM	–	–
CCc1c(C#N)c(SC(C(N)=O)c2ccccc2)nc(N2Cc3cn[nH]c3C2)c1C#N (centres unmarked) [Example 236, 2-((3,5-Dicyano-4-ethyl-6-(pyrrolo[3,4-c]pyrazol-5(1H,4H,6H)-yl)pyridin-2-yl)thio)-2-phenylacetamide]	> 31.6 µM	–	D (Category D: ≥6.5)	–
CCc1c(C#N)c(SC(C(N)=O)c2ccc(OC)cn2)nc(N(C)C)c1C#N (centres unmarked) [Example 237, 2-((3,5-Dicyano-6-(dimethylamino)-4-ethylpyridin-2-yl)thio)-2-(5-methoxypyridin-2-yl)acetamide]	1 to 31.6 µM	0.316 to 1 µM	–	0.316 to 1 µM and 0.398 µM
CCc1c(C#N)c(SC(C(N)=O)c2ccc(C)cn2)nc(N(C)C)c1C#N (centres unmarked) [Example 238, 2-((3,5-Dicyano-6-(dimethylamino)-4-ethylpyridin-2-yl)thio)-2-(5-methylpyridin-2-yl)acetamide]	1 to 31.6 µM	–	D (Category D: ≥6.5)	–
CCc1c(C#N)c(SC(C(N)=O)c2ccnc(F)c2)nc(N2CCCN(C)CC2)c1C#N (centres unmarked) [Example 239, 2-((3,5-Dicyano-4-ethyl-6-(4-methyl-1,4-diazepan-1-yl)pyridin-2-yl)thio)-2-(2-fluoropyridin-4-yl)acetamide]	> 31.6 µM	1 to 31.6 µM	–	–
CCc1c(C#N)c(SC(C(N)=O)c2ccccc2)nc(N2CCC(O)(CO)CC2)c1C#N (centres unmarked) [Example 240, 2-((3,5-Dicyano-4-ethyl-6-(4-hydroxy-4-(hydroxymethyl)piperidin-1-yl)pyridin-2-yl)thio)-2-phenylacetamide]	1 to 31.6 µM	0.316 to 1 µM	–	–
CCc1c(C#N)c(SC(C(N)=O)c2ccccc2)nc(N2CCC3(CC2)COC(=O)N3)c1C#N (centres unmarked) [Example 241, 2-((3,5-Dicyano-4-ethyl-6-(2-oxo-3-oxa-1,8-diazaspiro[4.5]decan-8-yl)pyridin-2-yl)thio)-2-phenylacetamide]	1 to 31.6 µM	0.316 to 1 µM	–	–
CCc1c(C#N)c(SC(C(N)=O)c2ccccc2)nc(N2CCC(N)(CO)CC2)c1C#N (centres unmarked) [Example 242, 2-((6-(4-Amino-4-(hydroxymethyl)piperidin-1-yl)-3,5-dicyano-4-ethylpyridin-2-yl)thio)-2-phenylacetamide, Trifluoroacetic Acid Salt]	< 0.316 µM	–	D (Category D: ≥6.5)	–
CCc1c(C#N)c(SC(C(N)=O)c2ccccc2)nc(N2CCC(O)(CN)CC2)c1C#N (centres unmarked) [Example 243, 2-((6-(4-(Aminomethyl)-4-hydroxypiperidin-1-yl)-3,5-dicyano-4-ethylpyridin-2-yl)thio)-2-phenylacetamide, Trifluoroacetic Acid Salt]	0.316 to 1 µM	–	D (Category D: ≥6.5)	–
CCc1c(C#N)c(SC(C(N)=O)c2cccc(C(=O)c3ccccc3)c2)nc(N2CCCN(CCO)CC2)c1C#N (centres unmarked) [Example 244, 2-(3-Benzoylphenyl)-2-((3,5-dicyano-4-ethyl-6-(4-(2-hydroxyethyl)-1,4-diazepan-1-yl)pyridin-2-yl)thio)acetamide]	< 0.316 µM	0.316 to 1 µM	–	–
CCc1c(C#N)c(SC(C(N)=O)c2ccc(C(=O)c3ccccc3)cc2)nc(N2CCCN(CCO)CC2)c1C#N (centres unmarked) [Example 245, 2-(4-Benzoylphenyl)-2-((3,5-dicyano-4-ethyl-6-(4-(2-hydroxyethyl)-1,4-diazepan-1-yl)pyridin-2-yl)thio)acetamide]	0.316 to 1 µM	0.316 to 1 µM	–	–
CCc1c(C#N)c(SC(C(N)=O)c2ccnc(C)c2)nc(N2CCCN(C)CC2)c1C#N (centres unmarked) [Example 246, 2-((3,5-Dicyano-4-ethyl-6-(4-methyl-1,4-diazepan-1-yl)pyridin-2-yl)thio)-2-(2-methylpyridin-4-yl)acetamide]	> 31.6 µM	0.316 to 1 µM	–	–
CCc1c(C#N)c(SC(C(N)=O)c2cccc(N3CCCC3)c2)nc(N2CCCN(C)CC2)c1C#N (centres unmarked) [Example 247, 2-((3,5-Dicyano-4-ethyl-6-(4-methyl-1,4-diazepan-1-yl)pyridin-2-yl)thio)-2-(3-(pyrrolidin-1-yl)phenyl)acetamide]	0.316 to 1 µM	1 to 31.6 µM	–	≥ 1 µM and 1.58 µM
CCc1c(C#N)c(SC(C(N)=O)c2ccncc2F)nc(N2CCCN(C)CC2)c1C#N (centres unmarked) [Example 248, 2-((3,5-Dicyano-4-ethyl-6-(4-methyl-1,4-diazepan-1-yl)pyridin-2-yl)thio)-2-(3-fluoropyridin-4-yl)acetamide]	> 31.6 µM	0.316 to 1 µM	–	–
CCc1c(C#N)c(SC(C(N)=O)c2cc(F)ncc2F)nc(N2CCCN(C)CC2)c1C#N (centres unmarked) [Example 249, 2-((3,5-Dicyano-4-ethyl-6-(4-methyl-1,4-diazepan-1-yl)pyridin-2-yl)thio)-2-(2,5-difluoropyridin-4-yl)acetamide]	> 31.6 µM	1 to 31.6 µM	–	–
CCc1c(C#N)c(SC(C(N)=O)c2ccccc2)nc(N2CCC(N3C(=O)CNC3=O)CC2)c1C#N (centres unmarked) [Example 250, 2-((3,5-Dicyano-6-(4-(2,5-dioxoimidazolidin-1-yl)piperidin-1-yl)-4-ethylpyridin-2-yl)thio)-2-phenylacetamide]	1 to 31.6 µM	0.316 to 1 µM	–	–
CCc1c(C#N)c(SC(C(N)=O)c2ccccc2)nc(N2CCC(N)(C(N)=O)CC2)c1C#N (centres unmarked) [Example 251]	1 to 31.6 µM	1 to 31.6 µM	–	–
